From US8263791B2, “Method and reagent for protein analysis” (National Institute of Advanced Industrial Science and …, priority 2008, dated 2012)
Several values for one entry are separate records, joined by “and”; a condition that tells them apart may be missing. Equal entries are not always repeated.

Columns and labels:
[1] = Measurement of maximum absorption wavelength and maximum fluorescence wavelength; format: physicochemical; conditions: 25 μg/mL in purified water
Description: Compound 1 and Compound 2 were separately dissolved in purified water at a concentration of 25 μg/mL. The absorption spectra at a wavelength ranging from 200 nm to 800 nm and the fluorescence spectra at a wavelength ranging from 450 nm to 600 nm were measured. The absorption spectra were measured using U3310 (Hitachi High-Technologies Corporation) and the fluorescence spectra were measured using RF-1500 (Shimadzu Corporation).

[2] = system: Protein Standard Mixture IV (ovotransferrin, albumin, ovalbumin, carboanhydrase, myoglobin, cytochrome C); assay: Protein detection on SDS-PAGE gel by staining after electrophoresis, varying solutions (I)/(II); conditions: 100 μg/mL
Description: (§1) Two (2) mL of a stock buffer (a mixture of purified water (4.2 mL), 0.5 M Tris-hydrochloric acid buffer (pH 8.6) (1.0 mL), glycerol (0.8 mL), 100 g/L sodium dodecyl sulfate (1.6 mL), and 2-mercaptoethanol (0.4 mL)) was added to 2 mg of a commercially available molecular weight marker (Protein Standard Mixture IV; Merck & Co., Inc.). The mixture was heated in boiling water for 2 minutes and then cooled. Thirty (30) μL each of the resultant was dispensed in a 0.5-mL microtube and then cryopreserved at −80° C. until the use thereof. A sample diluent (a mixture of purified water (3.8 mL), 0.5 M Tris-hydrochloric acid buffer (pH 8.6) (1.0 mL), glycerol (0.8 mL), 100 g/L sodium dodecyl sulfate (1.6 mL), and 5 g/L bromophenol blue (0.8 mL)) was added to the thawed molecular weight marker, so that a dilution series with protein concentrations ranging from 0.4 ng/μL to 200 ng/μL was prepared.
(§2) The marker contained, in terms of mass, equal amounts of ovotransferrin (78 kDa), albumin (66.3 kDa), ovalbumin (42.7 kDa), carboanhydrase (30 kDa), myoglobin (16.9 kDa), and cytochrome C (12.4 kDa).
(§3) • Electrophoresis apparatus: RAPIDAS-Mini-Slab electrophoresis chamber AE6450 (ATTO Corporation) • Polyacrylamide gel: Multigel II mini 10/20 (13W) (COSMO BIO Co., Ltd.) • Buffer for electrophoresis: 27.2 mM Tris (hydroxymethyl) aminomethane, 192 mM glycine, 3.5 mM Sodium dodecyl sulfate (pH 8.3) • Fluorescence imaging analyzer: Light capture II (ATTO Corporation)
Light source: green LED (center wavelength: 525 nm)
Cut filter: R-60 (550 nm).
(§4) Each sample of the dilution series prepared in (1) above was applied to a gel at 5 μL/well (lane 1: 167 ng of protein/band; lane 2: 83.3 ng/band; lane 3: 41.7 ng/band; lane 4: 20.8 ng/band; lane 5: 10.4 ng/band; lane 6: 5.2 ng/band; lane 7: 2.6 ng/band; lane 8: 1.3 ng/band; lane 9: 0.7 ng/band; and lane 10: 0.4 ng/band) and then subjected to electrophoresis with constant current of 30 mA for 45 minutes.
(§5) After electrophoresis, the gel was immediately immersed in a solution (I) (purified water, 1% Tween80 aqueous solution, or 1% Tween20 aqueous solution) for a predetermined period of time (20 minutes or 30 minutes). Subsequently, the gel was transferred to another container and then a buffer (purified water/25 mM phosphate buffer (pH 2.5)/methanol=45/45/10 (v/v)) in which Compound 1 (100 μg/mL) had been dissolved was added. After being left to stand for 10 minutes, the gel was transferred to another container and then immersed in a solution (II) (purified water, 1% Tween80 aqueous solution, or 1% Tween20 aqueous solution) for decoloration.

[3] = system: Protein Standard Mixture IV (ovotransferrin, albumin, ovalbumin, carboanhydrase, myoglobin, cytochrome C); assay: Evaluation of protein detection using Compound 1 and Compound 2 (staining after electrophoresis, Tween80); set-up: key to Detection: +: All bands could be detected.; −: At least one band could not be detected
Description: as §1, §2, §3, §4
(§6) Protein detection was carried out using Compound 1 and Compound 2 synthesized in Example 1 under analysis conditions described in Example 3. After electrophoresis, the gel was first immersed in 1% Tween80 aqueous solution for 20 minutes and then immersed in a buffer containing Compound 1 (60 μg/mL) or Compound 2 (60 μg/mL) for 10 minutes. Subsequently, the gel was transferred to and immersed in a container containing a 1% Tween80 aqueous solution for 30 minutes. […] The total time needed for treatment was 60 minutes. The gel was analyzed using a fluorescence imaging analyzer. When Compound 1 was used, bands containing 2.6 ng or more of proteins could be detected. Compared with the result, the detection limit was 20 ng in the case of Compound 2.

[4] = system: Protein Standard Mixture IV (ovotransferrin, albumin, ovalbumin, carboanhydrase, myoglobin, cytochrome C); assay: Protein detection with staining carried out during electrophoresis; set-up: key to Detection: +: All bands could be detected.; −: At least one band could not be detected; conditions: compound 15 μg/mL in electrophoresis buffer
Description: Compound 1 or Compound 2 were dissolved in a buffer for electrophoresis (27.2 mM Tris (hydroxymethyl)aminomethane, 192 mM glycine, and 3.5 mM sodium dodecyl sulfate (pH 8.3)) at a concentration of 15 μg/mL. With the use of the above buffer, the other conditions identical to those described in Example 3 were employed to carry out electrophoresis. After completion of electrophoresis, the gel was transferred to a container containing 1% Tween80 aqueous solution, left to stand for 40 minutes, and then analyzed using a fluorescence imaging analyzer. When Compound 1 was used, bands containing 5.2 ng or more of a protein could be detected.

[5] = Water solubility / precipitation in the staining solution; format: physicochemical
Description: as §5, §6
After electrophoresis, the gel was immediately immersed in distilled water for 20 to 30 minutes. Subsequently, the gel was transferred to another container and then a staining solution (distilled water:methanol=1:1 (v/v)) in which Compound 3 (100 μg/mL) had been dissolved was added. After 30 minutes of immersion, the gel was transferred to another container and then immersed in a wash solution (water:methanol=90:10 (v/v)) for decoloration. The gel was observed using a fluorescence imaging analyzer.

For `N#CC(C#N)=C1C=C(/C=C/c2ccccc2S(=O)(=O)[O-])OC(/C=C/c2ccccc2S(=O)(=O)[O-])=C1.[Na+].[Na+]` [Compound 1, 2,2′-(1E,1′E)-2,2′-(4-(dicyanomethylene)-4H-pyrane-2,6-diyl)bis(ethene-2,1-diyl)bis(sodium benzenesulfonate)salt], the “Excitation wavelength for maximum fluorescence” value [1] was 444 nm, the Maximum absorption wavelength [1] was 293 nm and 380 nm and the Maximum fluorescence wavelength [1] was 516 nm. For the same compound, the Detection sensitivity ([2]; Conditions 1: solution (I) purified water, solution (II) purified water) was 5 ng, the Detection sensitivity ([2]; Conditions 2: solution (I) Tween80, solution (II) purified water) was 5 ng and the Detection sensitivity ([2]; Conditions 3: solution (I) purified water, solution (II) Tween80) was 5 ng. For the same compound, the Detection sensitivity ([2]; Conditions 4: solution (I) Tween80, solution (II) Tween80) was 5 ng, the Detection sensitivity ([2]; Conditions 5: solution (I) Tween20, solution (II) Tween20) was 10 ng and the “Relationship between protein concentration of each band and fluorescence intensity” value ([3]; FIG. 2, all proteins of the marker) was “no differences due to protein type were observed”. The Detection ([3]; Lane 1, protein 167 ng/band, compound 60 μg/mL) was “+”, the Detection ([3]; Lane 2, protein 83.3 ng/band, compound 60 μg/mL) was “+” and the Detection ([3]; Lane 3, protein 41.7 ng/band, compound 60 μg/mL) was “+”. For the same compound, the Detection ([3]; Lane 4, protein 20.8 ng/band, compound 60 μg/mL) was “+”, the Detection ([3]; Lane 5, protein 10.4 ng/band, compound 60 μg/mL) was “+” and the Detection ([3]; Lane 6, protein 5.2 ng/band, compound 60 μg/mL) was “+”. For the same compound, the Detection ([3]; Lane 7, protein 2.6 ng/band, compound 60 μg/mL) was “+”, the Detection ([3]; Lane 8, protein 1.3 ng/band, compound 60 μg/mL) was “−” and the Detection ([3]; Lane 9, protein 0.7 ng/band, compound 60 μg/mL) was “−”. For the same compound, the Detection ([3]; Lane 10, protein 0.4 ng/band, compound 60 μg/mL) was “−”, the “Detection limit (protein per band that could be detected)” value ([3]; compound 60 μg/mL, 1% Tween80 before and after staining) was at least 2.6 ng and the Detection ([4]; Lane 1, protein 167 ng/band) was “+”. The Detection ([4]; Lane 2, protein 83.3 ng/band) was “+”, the Detection ([4]; Lane 3, protein 41.7 ng/band) was “+” and the Detection ([4]; Lane 4, protein 20.8 ng/band) was “+”. For the same compound, the Detection ([4]; Lane 5, protein 10.4 ng/band) was “+”, the Detection ([4]; Lane 6, protein 5.2 ng/band) was “+” and the Detection ([4]; Lane 7, protein 2.6 ng/band) was “+”. For the same compound, the Detection ([4]; Lane 8, protein 1.3 ng/band) was “−”, the Detection ([4]; Lane 9, protein 0.7 ng/band) was “−” and the Detection ([4]; Lane 10, protein 0.4 ng/band) was “−”. For the same compound, the “Protein per band that could be detected” value ([4]; 1% Tween80 40 minutes) was at least 5.2 ng, the “Precipitation in the solutions during staining” value ([5]; 60 μg/mL in buffer, Example 4) was “no precipitation” and the “Precipitation in the solutions during staining” value ([5]; 100 μg/mL in purified water/25 mM phosphate buffer (pH 2.5)/methanol=45/45/10) was “no precipitation”.
